In this assay the target is CD73 (Homo sapiens (Human), UniProt P21589). The experiment in a line: Biochemical assay: inhibition of CD73 activity (AMP hydrolysis, Malachite Green readout). The settings on record: CD73 0.3208 nM, AMP 15 μM, 25 mM Tris-HCl pH 7.4, RT, absorbance 620 nm. In outline:
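Phosphate from AMP hydrolysis (15 μM AMP, 10 min, RT) was detected by Malachite Green absorbance to give IC50s. Enzyme at 320 pM was first exposed 15 min to compounds, dosed from 100 μM in ½-log steps, in Tris pH 7.4 buffer with MgCl2, Brij-35 and BSA.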

Some results are limits rather than exact numbers.

Sequence of CD73 (P21589 27-574): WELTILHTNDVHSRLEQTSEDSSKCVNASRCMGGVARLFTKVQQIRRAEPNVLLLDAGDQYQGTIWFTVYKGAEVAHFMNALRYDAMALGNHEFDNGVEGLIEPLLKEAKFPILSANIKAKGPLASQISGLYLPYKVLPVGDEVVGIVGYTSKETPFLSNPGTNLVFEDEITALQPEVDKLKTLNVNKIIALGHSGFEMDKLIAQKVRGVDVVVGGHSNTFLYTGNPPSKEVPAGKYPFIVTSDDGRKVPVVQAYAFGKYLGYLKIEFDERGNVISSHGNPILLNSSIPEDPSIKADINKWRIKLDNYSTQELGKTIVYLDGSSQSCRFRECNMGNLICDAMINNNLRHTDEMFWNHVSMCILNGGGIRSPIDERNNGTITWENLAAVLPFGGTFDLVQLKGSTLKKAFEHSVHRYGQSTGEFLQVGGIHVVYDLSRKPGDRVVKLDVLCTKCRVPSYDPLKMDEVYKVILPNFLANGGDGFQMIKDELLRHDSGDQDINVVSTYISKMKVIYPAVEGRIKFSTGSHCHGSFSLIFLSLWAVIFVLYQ

For `CCP(=O)(O)C(CO)(CO)OC[C@H]1O[C@@H](n2ncc3c(NC4CCCC4)nc(Cl)nc32)[C@H](O)[C@@H]1O` [Example 112, (2-(((2R,3S,4R,5R)-5-(6-chloro-4-(cyclopentylamino)-1H-pyrazolo[3,4-d]pyrimidin-1-yl)-3,4-dihydroxytetrahydrofuran-2-yl)methoxy)-1,3-dihydroxypropan-2-yl)(ethyl)phosphinic acid], the IC50 lay within 100 to 1000 nM.

For the compound `C[C@H](O)[C@@H](OC[C@H]1O[C@@H](n2ncc3c(NC4CCCC4)nc(Cl)nc32)[C@H](O)[C@@H]1O)P(=O)(O)O` [Example 11, ((1S,2S)-1-(((2R,3S,4R,5R)-5-(6-chloro-4-(cyclopentylamino)-1H-pyrazolo[3,4-d]pyrimidin-1-yl)-3,4-dihydroxytetrahydrofuran-2-yl)methoxy)-2-hydroxypropyl)phosphonic acid], the IC50 is ≤ 100 nM.

In the case of `Nc1nc(Cl)nc2c1cnn2[C@@H]1O[C@H](COC(CO)P(=O)(O)O)[C@@H](O)[C@H]1O` (stereo partly drawn) [Example 59, (1-(((2R,3S,4R,5R)-5-(4-amino-6-chloro-1H-pyrazolo[3,4-d]pyrimidin-1-yl)-3,4-dihydroxytetrahydrofuran-2-yl)methoxy)-2-hydroxyethyl)phosphonic acid], the IC50 is 100 to 1000 nM.

For `COCC(COC)(OC[C@H]1O[C@@H](n2ncc3c(NC4CCCC4)nc(Cl)nc32)[C@H](O)[C@@H]1O)P(=O)(O)O` [Example 87, [1-[[(2R,3S,4R,5R)-5-[6-Chloro-4-(cyclopentylamino)pyrazolo[3,4-d]pyrimidin-1-yl]-3,4-dihydroxy-tetrahydrofuran-2-yl]methoxy]-2-methoxy-1-(methoxymethyl)ethyl]phosphonic acid], the IC50 is ≤ 100 nM.

`CC(CO)(OC[C@H]1O[C@@H](n2ncc3c(N[C@@H]4CC[C@H]5CCC[C@H]54)nc(Cl)nc32)[C@H](O)[C@@H]1O)P(=O)(O)O` (stereo partly drawn) [Example 133, (2-(((2R,3S,4R,5R)-5-(6-chloro-4-(((1R,3aR,6aR)-octahydropentalen-1-yl)amino)-1H-pyrazolo[3,4-d]pyrimidin-1-yl)-3,4-dihydroxytetrahydrofuran-2-yl)methoxy)-1-hydroxypropan-2-yl)phosphonic aci]: the IC50 is ≤ 100 nM.

For the compound `CN(c1nc(Cl)nc2c1cnn2[C@@H]1O[C@H](COC(CO)(CO)P(=O)(O)O)[C@@H](O)[C@H]1O)C1CCCC1` (racemic) [Example 211, rac-(2-(((2R,3S,4R,5R)-5-(6-chloro-4-(cyclopentyl(methyl)amino)-1H-pyrazolo[3,4-d]pyrimidin-1-yl)-3,4-dihydroxytetrahydrofuran-2-yl)methoxy)-1,3-dihydroxypropan-2-yl)phosphonic acid], the IC50 is ≤ 100 nM.

As for `COCCOc1nc(NC2CCCC2)c2cnn([C@@H]3O[C@H](COC(C)(CO)P(=O)(O)O)[C@@H](O)[C@H]3O)c2n1` (stereo partly drawn) [Example 145, (2-(((2R,3S,4R,5R)-5-(4-(cyclopentylamino)-6-(2-methoxyethoxy)-1H-pyrazolo[3,4-d]pyrimidin-1-yl)-3,4-dihydroxytetrahydrofuran-2-yl)methoxy)-1-hydroxypropan-2-yl)phosphonic acid], the IC50 is ≤ 100 nM.

Consider `O=P(O)(O)[C@](CO)(Cc1nn[nH]n1)OC[C@H]1O[C@@H](n2ncc3c(NCC4CC4)nc(Cl)nc32)[C@H](O)[C@@H]1O` (racemic) [Example 196, rac-((R)-2-(((2S,3R,4S,5S)-5-(6-chloro-4-((cyclopropylmethyl)amino)-1H-pyrazolo[3,4-d]pyrimidin-1-yl)-3,4-dihydroxytetrahydrofuran-2-yl)methoxy)-1-hydroxy-3-(2H-tetrazol-5-yl)propan-2-yl)phosphonic acid], for which the IC50 is ≤ 100 nM.

With `CC#CC[C@](CO)(OC[C@H]1O[C@@H](n2ncc3c(NC4CCCC4)nc(Cl)nc32)[C@H](O)[C@@H]1O)P(=O)(O)O` [Example 98, ((S)-2-(((2R,3S,4R,5R)-5-(6-chloro-4-(cyclopentylamino)-1H-pyrazolo[3,4-d]pyrimidin-1-yl)-3,4-dihydroxytetrahydrofuran-2-yl)methoxy)-1-hydroxyhex-4-yn-2-yl)phosphonic acid], the IC50 was ≤ 100 nM.

The term IC50 denotes the point on the concentration scale where inhibition reaches its midpoint. High values mean weaker potency, low ones greater potency.

Values taken from patent US11325938B2, “CD73 inhibitors” (ORIC Pharmaceuticals, Inc., priority 2018, dated 2022).
